Consider three compounds from patent publication US20060057669A1, “Inactive transcription factor tif-ia and uses thereof” (priority 2002, published 2006).

For one data set, the system named is TIF-IA. In words: In vitro transcription assay of TIF-IA purified from treated HEK293T cells, in nuclear extracts from rapamycin-treated cells. The following applies: 1 hr; okadaic acid 1 μM or calyculin A 50 nM with rapamycin 20 nM. The format is biochemical. As to the method:
Nuclear extracts from rapamycin-treated cells were supplemented with 30 and 90 ng of TIF-IA that was immunopurified from HEK293T cells co-expressing FLAG-tagged TIF-IA and either GST/myc-tagged wild-type S6K1 (lanes 2-5) or S6K1E389ANAC (lanes 6-9).
B) Transcriptional activity of TIF-IA mutants in vitro. TIF-IA was purified from cells that were mock-treated (lanes 2, 3), or treated for 1 hr with either okadaic acid (1 μM), rapamycin (20 nM), calyculin A (50 nM), or both okadaic acid or calyculin A and rapamycin as indicated. 30 ng (even numbers) and 90 ng (odd numbers except 1) of TIF-IA were assayed for their capability to restore transcription of nuclear extracts from rapamycin-treated cells.
If S6K1 or S6K1-activated kinases were the only pathways that target TIF-IA and mediate mTOR-dependent regulation of Pol I transcription, then rapamycin should not inactivate TIF-IA if a rapamycin-resistant S6K1 mutant was co-expressed. This, however, was not the case.
Two mechanisms could be responsible for the decreased phosphorylation of S44 after rapamycin treatment, e.g., inhibition of the respective kinase or activation of a counteracting phosphatase. […] If PP2A dephosphorylates and thus inactivates TIF-IA, inhibition of PP2A should protect TIF-IA from inactivation by rapamycin. […]

Data set [1] deals with Pol I transcription. Nature of the data set: In vitro transcription: TIF-IA mutants added to nuclear extract from exponentially growing FM3A cells. It counts as biochemical, murine. The following applies: 20 and 40 ng added to 15 ug nuclear extract. As to the method:
20 and 40 ng of the indicated TIF-IA mutants were added to 15 ug nuclear extract from exponentially growing FM3A cells and rDNA transcription was assayed.
(§1) Nuclear extracts were prepared from exponentially growing (8×10^5 cells/ml), density-arrested or PD98059-treated (CN Bioscience, Bad Soden, Germany) 40 μM, 0.5 hr) or rapamycin-treated FM3A cells (ATCC, Manassas, USA). 25 μl assays contained 50 ng of template DNA (pMr600/EcoRI), 30 μg nuclear extract proteins and 12 mM Hepes-KOH, [pH8.0], 0.1 mM EDTA, 5 mM MgCl2, 80 mM KCl, 10 mM creatine phosphate, 12% (v/v) glycerol, 0.66 mM each of ATP, GTP and CTP, 0.01 mM UTP and 0.5 μCi [α-^32P]UTP (5000 Ci/mmol). After incubation for 60 min at 30° C., RNA was extracted and analyzed on non-denaturing 5% polyacrylamide gels
Given that phosphorylation of TIF-IA at serine 649 is essential for transcription, excess of TIF-IAS649A should impair Pol I transcription. To test this, we examined the effect of exogenous wild-type and mutant TIF-IA on transcriptional activity of extracts from exponentially growing cells.

Data set [2] deals with HEK293T cells. Nature of the data set: Quantitative fluorimetric viability assay with calcein-AM. It counts as cell-based. Conditions: 24, 36, 48 and 60 hr after transfection; 2 μM calcein-AM. As to the method: (B) Quantitative fluorimetric viability assay with calcein-AM. HEK293T cells were transfected with TIF-IA or the indicated point mutants. […] Viable cells were measured 24, 36, 48 and 60 hr after transfection by incubation with […] calcein-AM. The gradual increase in fluorescence intensity was recorded with a fluorescence multi-well plate reader for 20 min with an excitation wavelength of 485 nm and an emission wavelength of 530 nm. The proliferation rate of mock-transfected cells and cells overexpressing TIF-IA is shown at the left. Plots show the accumulation of calcein fluorescence (arbitrary units) against time. Growth rates calculated from linear regression curves are shown at the right. Values are presented as the mean±SD from three independent experiments performed in duplicates.
Conversion of calcein-AM (calcein acetoxymethyl ester, (CN Bioscience GmbH, Bad Soden, Germany) to calcein was used to measure cell proliferation. 12 hr after transfection, HEK293T cells were seeded to 96-well micro-plates at 1×10^4 cells/well. After 24, 36, 48 and 60 hr, cells were washed with PBS, incubated with 2 μM calcein-AM, and the gradual increase in fluorescence intensity within the cells was recorded by a fluorescence multi-well plate reader (CytoFluor Series 4000/TC, PerSeptive Biosystems, (Applied Biosystems, Forster City, USA) for 20 min in 1 min intervals. Excitation wavelength used for measurements of fluorescence was 485 nm with a bandwidth of 20 nm; emission wavelength was 530 nm with a bandwidth of 25 nm. Under the experimental conditions used, there is a direct correlation between the accumulation ratio of intracellular calcein fluorescence and the number of viable cells. The data from three independent experiments were analyzed by Sigmaplot and expressed as the mean±standard deviation. For statistical analysis, student's t test was used. Differences with a P<0.01 were considered statistically significant.
Given the functional significance of ERK/RSK-directed TIF-IA phosphorylation on Pol I transcription, mutations that enhance or abrogate TIF-IA activity may have a positive or negative effect on cell growth. To test this, HEK293T cells were transfected with cDNAs encoding wild-type or mutant TIF-IA which harbor single or double point mutations at S649 and S633. The expression of TIF-IA was estimated on Western blots and the cellular growth rate was measured by calcein-AM staining. Calcein-AM is a non-fluorescent, hydrophobic compound that is rapidly hydrolyzed by intracellular esterases releasing hydrophilic fluorescent calcein. Thus, cellular calcein fluorescence correlates with the amount of viable cells. […] Cells expressing FLAG-tagged wild-type or mutant TIF-IA were stained with FITC-conjugated anti-FLAG antibodies, identified by FACS and cell numbers were calculated by measuring the ratio of stained cells versus an internal standard. […] Conversely, the number of cells expressing TIF-IAS649A was 33% lower than the control. […] Taken together, the results reveal a striking correlation between phosphorylation of TIF-IA at serine 649, cellular rRNA synthetic activity and cell cycle progression.

Data set [3] deals with Pol I transcription. In words: In vitro transcription: TIF-IA mutants restoring rDNA transcription of nuclear extract from density-arrested FM3A cells. It counts as biochemical, murine. Conditions: S633/S649 mutants; 20 and 40 ng. The procedure:
(A) Transcriptional activity of TIF-IA mutants in vitro. FLAG-tagged wild-type TIF-IA and the indicated single or double point mutants were overexpressed in HEK293T cells, immunopurified, and 20 and 40 ng were assayed for their capability to restore rDNA transcriptional activity of nuclear extract from density-arrested FM3A cells. The amount and purity of TIF-IA were estimated on silver-stained SDS-polyacrylamide gels and Western blots (data not shown).
(A) Transcriptional activity of TIF-IAS199A and TIF-IAS199D in vitro. FLAG-tagged wild-type TIF-IA and the indicated mutants were immunopurified from HEK293T cells, and 30 and 60 ng were assayed for their capability to restore transcriptional activity of nuclear extract from density-arrested FM3A cells. The amount and purity of TIF-IA were estimated on silver-stained SDS-polyacrylamide gels (data not shown).
(B) Transcriptional activity of TIF-IAS44A in vitro. FLAG-tagged wild-type TIF-IA and the indicated mutant were assayed for their transcriptional activity in vitro.
as §1
TIF-IA was immunopurified from untransfected NIH3T3 cells or from HEK293T cells overexpressing FLAG-tagged TIF-IA. 4×10^6 cells were lysed in 0.8 ml IP buffer (20 mM Tris-HCl [pH 7.4], 200 mM NaCl, 2 mM EDTA, 2 mM EGTA, 1% Triton X-100, 0.5 mM PMSF, 1 μg/ml aprotinin, 5 μg/ml leupeptin and 1 μg/ml pepstatin A), centrifuged at 10,000 g for 30 min, and the supernatants were incubated for 4 hr at 4° C. with either 10 μg anti-TIF-IA antibodies bound to 20 μl protein G-agarose or with anti-FLAG (M2) agarose (Sigma-Aldrich Corp., Missouri, USA). The immunocomplexes were successively washed with buffer AM (20 mM Tris-HCl [pH 8.0], 5 mM MgCl2, 0.1 mM EDTA, 20% glycerol) containing 400 and 100 mM KCl, respectively. The amount and purity of TIF-IA was estimated on silver-stained polyacrylamide gels and similar amounts of bead-bound TIF-IA were used in in vitro transcription assays. GST fusion proteins were expressed in E. coli BL21(DE3) and purified on Glutathione-Sepharose 4B according to the manufacturer's instructions.
To assess the functional relevance of S633 and S649 phosphorylation on transcriptional activity, the respective S→A and S→D single or double point mutants were purified from transfected cells and assayed for their capability to rescue transcription of extracts from density-arrested cells. […] Thus, phosphorylation of TIF-IA at S649 and S633 is required for transcriptional activity.
Phosphorylation of peptide a should inhibit TIF-IA activity, while phosphorylation of peptide b, e.g. S44, should augment TIF-IA activity.

The subject of data set [4] is HEK293T cells. In words: Relative DNA content of sorted cells by FACS analysis. The format is cell-based. The procedure:
HEK293T cells were harvested 60 hr after transfection with pcDNA-FLAG-TIF-IA, fixed with 2% paraformaldehyde and permeabilized with 0.1% Triton X-100 in PBS. Transfected cells were labeled by incubation for 1 hr with 2 μg/ml FITC-conjugated anti-M2 antibodies (Sigma) and subsequently stained with […] propidium iodide (Sigma). Cell were analyzed with a FACSCan™ flow cytometer in the presence of CaliBRITE™ beads (Becton Dickinson, San Jose, USA). The number of cells expressing FLAG-TIF-IA was calculated from the ratio between FITC-positive cells and counted beads.
Given the functional significance of ERK/RSK-directed TIF-IA phosphorylation on Pol I transcription, mutations that enhance or abrogate TIF-IA activity may have a positive or negative effect on cell growth. To test this, HEK293T cells were transfected with cDNAs encoding wild-type or mutant TIF-IA which harbor single or double point mutations at S649 and S633. The expression of TIF-IA was estimated on Western blots and the cellular growth rate was measured by calcein-AM staining. […] Thus, cellular calcein fluorescence correlates with the amount of viable cells. […] Cells expressing FLAG-tagged wild-type or mutant TIF-IA were stained with FITC-conjugated anti-FLAG antibodies, identified by FACS and cell numbers were calculated by measuring the ratio of stained cells versus an internal standard. […]

Data set [5] relates to HEK293T cells. In words: Images of transfected HEK293T cells. The format is cell-based. The following applies: images taken after 48 h. As to the method:
HEK293T cells were transfected with TIF-IA or TIFIAS649A, respectively, and images were taken after 48 h.

Data set [6] relates to HEK293T cells. In words: Cell enumeration by dual-parameter flow cytometry. It counts as cell-based. The following applies: 60 hr after transfection. The procedure:
(C) Cell enumeration by flow cytometry. HEK293T cells expressing wild-type TIF-IA or the S649 mutants were harvested 60 hours after transfection, stained with FITC-conjugated anti-FLAG M2 antibodies and analyzed by dual-parameter flow cytometry in a FACScan™ flow cytometer in the presence of CaliBRITE™ calibration beads. 60,000 events were recorded from each sample. The number of cells expressing FLAG-TIF-IA was calculated from the ratio between FITC-positive cells and counted beads.
HEK293T cells were harvested 60 hr after transfection with pcDNA-FLAG-TIF-IA, fixed with 2% paraformaldehyde and permeabilized with 0.1% Triton X-100 in PBS. […] Cell were analyzed with a FACSCan™ flow cytometer in the presence of CaliBRITE™ beads (Becton Dickinson, San Jose, USA). The number of cells expressing FLAG-TIF-IA was calculated from the ratio between FITC-positive cells and counted beads.
Given the functional significance of ERK/RSK-directed TIF-IA phosphorylation on Pol I transcription, mutations that enhance or abrogate TIF-IA activity may have a positive or negative effect on cell growth. […] The expression of TIF-IA was estimated on Western blots and the cellular growth rate was measured by calcein-AM staining. […] Thus, cellular calcein fluorescence correlates with the amount of viable cells. […]
On the technique in general: In flow cytometry, cells or beads pass a laser one at a time.

Data set [7] relates to HEK293T cells. In words: Trypan blue staining. It counts as cell-based. Conditions: data not shown.

As for `COC[C@@H]([C@H](O)[C@H](O)C(=O)NCC[C@H](C)c1nc(/C=C/C[C@@H]2O[C@]3(C[C@@H](O)[C@@H]2C)O[C@H]([C@H](C[C@H](O)[C@H](C)[C@H](O)[C@H](C)/C=C(C)/C(C)=C/C=C/C(C)=C\C#N)OC)[C@H](OP(=O)(O)O)C3(C)C)co1)N(C)C` [calyculin A], in the data set with TIF-IA, the “effect on inactivation of TIF-IA by rapamycin” value is “prevented inactivation of TIF-IA by rapamycin”.
On the same count and under the same terms, under `C=C1[C@@H](O)[C@@H]2O[C@]3(CC[C@H](/C=C/[C@@H](C)[C@@H]4CC(C)=C[C@@]5(O[C@H](C[C@@](C)(O)C(=O)O)CC[C@H]5O)O4)O3)CC[C@H]2O[C@@H]1[C@@H](O)C[C@H](C)[C@H]1O[C@@]2(CCCCO2)CC[C@H]1C` [okadaic acid] stands “prevented inactivation of TIF-IA by rapamycin”.
As for “TIF-IAS649A: TIF-IA point mutant, serine residue at position 649 replaced by an alanine residue”, the results for the “effect on transcriptional activity of extracts from exponentially growing cells” value in the data set on Pol I transcription [1] and in the data set on Pol I transcription [1] (listed as S649A) were “acts as a dominant-negative inhibitor of Pol I transcription” and “suppressed transcription well below the basal level”, respectively. Also, in the data set on HEK293T cells [2], the “cellular growth rate by calcein-AM staining” value was “impaired cell growth”. Moreover, the “capability to rescue transcription of extracts from density-arrested cells” value with Pol I transcription [3] was “abolished TIF-IA activity”. Moreover, in the data set on HEK293T cells [4], the “decrease of G2/M-phase cells” value came to 25%. In addition, the “cell growth on images” value with HEK293T cells [5] is on record as “retards cell growth”. Also, in the data set with HEK293T cells [6], the “number of cells lower than the control” value came out at 33%. In the data set with HEK293T cells [7], the “cell viability as cause of growth inhibition” value is given as “not due to decreased cell viability”.
